Laboratory results as given in patent US20180042931A1 (Bayer Pharma Aktiengesellschaft, priority 2015, published 2018).

Assays:
[1] = test system: FOP control vector (randomized, non-functional sequence instead of functional TCF elements) in HCT116 cells; experiment: Control reporter assay, HCT116 cells stably transfected with FOP control vector (HCT116-FOP), luciferase readout; format: cell-based; settings: Homo sapiens, HCT-116, 36 hours incubation, luciferase expression, dilution series up to 50 μM
Procedure: In a parallel approach, HCT116 cells were cotransfected with the FOP control vector and pcDNA3. The FOP vector is identical to the TOP construct, but it contains instead of functional TCF elements a randomized, non-functional sequence. For this transfection a stable transfected cell line was generated as well.
(§1) In preparation of the assay, the two cell lines were plated 24 hours before at 10000 cells per well of a 384 micro titre plate (MTP) in 30 μL growth medium. Selective inhibitory activity for small molecules on the mutated Wnt pathway was determined after parallel incubation of both (TOP and FOP) HCT116 reporter cell lines with a compound dilution series from 50 μM to 15 nM in steps of 3.16-fold dilutions in CAFTY buffer (130 mM NaCl, 5 mM KCl, 20 mM HEPES, 1 mM MgCl2, 5 mM NaHCO3, pH 7.4) containing 2 mM Ca^2+ and 0.01% BSA. The compounds were thereby serially prediluted in 100% DMSO and thereafter in addition 50 fold into the CAFTY compound dilution buffer (described above). From this dilution 10 μL were added to the cells in 30 μL growth medium and incubated for 36 hours at 37° C. and 5% CO2. Thereafter luciferase assay buffer (1:1 mixture of luciferase substrate buffer (20 mM Tricine, 2.67 mM MgSO4, 0.1 mM EDTA, 4 mM DTT, 270 μM Coenzyme A, 470 μM Luciferin, 530 μM ATP, ph adjusted to pH 7.8 with a sufficient volume of 5M NaOH) and Triton buffer (30 mL Triton X-100, 115 mL glycerol, 308 mg Dithiothreitol, 4.45 g Na2HPO4.2H2O, 3.03 g TRIS HCl, ad 1I H2O, pH 7.8) was added as equal volume to the compound solution on the cells to determine luciferase expression as a measure of Wnt signaling activity in a luminometer.

[2] = test system: constitutive active colorectal cancer cell (CRC) Wnt pathway; experiment: Cellular reporter assay, HCT116 cells stably transfected with Super TopFlash vector (HCT116-TOP), luciferase readout; format: cell-based; settings: Homo sapiens, HCT-116, 36 hours incubation, luciferase expression, average or median values
Procedure: In order to discover and characterize small molecules which inhibit the constitutive active colorectal cancer cell (CRC) Wnt pathway, a cellular reporter assay was employed. The corresponding assay cell was generated by transfection of the colorectal cancer cell line HCT116 (ATCC, #CCL-247) with the Super TopFlash vector (Morin, Science 275, 1997, 1787-1790; Molenaar et al., Cell 86 (3), 1996, 391-399). The HCT116 cell line is cultivated at 37° C. and 5% CO2 in DMEM/F-12 (Life Technologies, #11320-074), supplemented with 2 mM glutamine, 20 mM HEPES, 1.4 mM pyruvate, 0.15% Na-bicarbonate and 10% foetal bovine serum (GIBCO, #10270), this cancer cell line is pathophysiological relevant since it carries a deletion of position S45 in the β-catenin gene, leading to constitutive active Wnt signaling. Stable transfectants were generated by cotransfection with pcDNA3 and selection of stable transfected cells with 1 mg/mL G418.
as §1

SMILES	IC50 [1] [nM]	IC50 [2] [nM]
COc1ccc(NC(=O)c2ccc(-c3ccc(N)nc3)cc2)cc1NC(=O)CN1CCOCC1 [Example 1, 4-(6-aminopyridin-3-yl)-N-{4-methoxy-3-[(morpholin-4-ylacetyl)amino]phenyl}benzamide]	≥ 50000	625
COc1ccc(NC(=O)c2ccc(-c3cncnc3)cc2)cc1NC(=O)CN1CCOCC1 [Example 2, N-{4-methoxy-3-[(morpholin-4-ylacetyl)amino]phenyl}-4-(pyrimidin-5-yl)benzamide]	≥ 50000	3110
Nc1ncc(-c2ccc(NC(=O)c3ccc(OC(F)(F)F)c(NC(=O)CN4CCOCC4)c3)cc2)cn1 [Example 3, N-[4-(2-aminopyrimidin-5-yl)phenyl]-3-[(morpholin-4-ylacetyl)amino]-4-(trifluoromethoxy)-benzamide]	≥ 50000	49
O=C(CN1CCOCC1)Nc1cc(C(=O)Nc2ccc(-c3cccnc3F)cc2)ccc1OC(F)(F)F [Example 4, N-[4-(2-fluoropyridin-3-yl)phenyl]-3-[(morpholin-4-ylacetyl)amino]-4-(trifluoromethoxy)benzamide]	≥ 50000	14.8
Cn1cc(-c2ccc(NC(=O)c3ccc(OC(F)(F)F)c(NC(=O)CN4CCOCC4)c3)cc2)cn1 [Example 5, N-[4-(1-methyl-1H-pyrazol-4-yl)phenyl]-3-[(morpholin-4-ylacetyl)amino]-4-(trifluoromethoxy)-benzamide]	≥ 50000	160
O=C(CN1CCOCC1)Nc1cc(C(=O)Nc2ccc(-c3cn[nH]c3)cc2)ccc1OC(F)(F)F [Example 6, 3-[(morpholin-4-ylacetyl)amino]-N-[4-(1H-pyrazol-4-yl)phenyl]-4-(trifluoromethoxy)benzamide]	≥ 50000	180
Nc1ccc(-c2ccc(NC(=O)c3ccc(OC(F)(F)F)c(NC(=O)CN4CCOCC4)c3)cc2)cn1 [Example 7, N-[4-(6-aminopyridin-3-yl)phenyl]-3-[(morpholin-4-ylacetyl)amino]-4-(trifluoromethoxy)benzamide]	≥ 50000	22.8
O=C(CN1CCOCC1)Nc1cc(C(=O)Nc2ccc(-c3cncnc3)cc2)ccc1OC(F)(F)F [Example 8, 3-[(morpholin-4-ylacetyl)amino]-N-[4-(pyrimidin-5-yl)phenyl]-4-(trifluoromethoxy)benzamide]	≥ 50000	66.5
COc1ncc(-c2ccc(NC(=O)c3ccc(OC(F)(F)F)c(NC(=O)CN4CCOCC4)c3)cc2)cn1 [Example 9, N-[4-(2-methoxypyrimidin-5-yl)phenyl]-3-[(morpholin-4-ylacetyl)amino]-4-(trifluoromethoxy)-benzamide]	≥ 50000	410
CN(C)c1ncc(-c2ccc(NC(=O)c3ccc(OC(F)(F)F)c(NC(=O)CN4CCOCC4)c3)cc2)cn1 [Example 10, N-{4-[2-(dimethylamino)pyrimidin-5-yl]phenyl}-3-[(morpholin-4-ylacetyl)amino]-4-(trifluoromethoxy)benzamide]	≥ 50000	60.9
O=C(CN1CCOCC1)Nc1cc(C(=O)Nc2ccc(-c3cnc(N4CCC4)nc3)cc2)ccc1OC(F)(F)F [Example 11, N-{4-[2-(azetidin-1-yl)pyrimidin-5-yl]phenyl}-3-[(morpholin-4-ylacetyl)amino]-4-(trifluoromethoxy)benzamide]	≥ 50000	200
O=C(CN1CCOCC1)Nc1cc(C(=O)Nc2ccc(-c3cnc(C(F)(F)F)nc3)cc2)ccc1OC(F)(F)F [Example 12, 3-[(morpholin-4-ylacetyl)amino]-4-(trifluoromethoxy)-N-{4-[2-(trifluoromethyl)pyrimidin-5-yl]phenyl}benzamide]	32000	2660
Cc1ccc(-c2ccc(NC(=O)c3ccc(OC(F)(F)F)c(NC(=O)CN4CCOCC4)c3)cc2)cn1 [Example 13, N-[4-(6-methylpyridin-3-yl)phenyl]-3-[(morpholin-4-ylacetyl)amino]-4-(trifluoromethoxy)benzamide]	≥ 50000	557
O=C(CN1CCOCC1)Nc1cc(C(=O)Nc2ccc(-c3ccc(CO)nc3)cc2)ccc1OC(F)(F)F [Example 14, N-{4-[6-(hydroxymethyl)pyridin-3-yl]phenyl}-3-[(morpholin-4-ylacetyl)amino]-4-(trifluoromethoxy)benzamide]	≥ 50000	377
COc1ccc(-c2ccc(NC(=O)c3ccc(OC(F)(F)F)c(NC(=O)CN4CCOCC4)c3)cc2)cn1 [Example 15, N-[4-(6-methoxypyridin-3-yl)phenyl]-3-[(morpholin-4-ylacetyl)amino]-4-(trifluoromethoxy)benzamide]	≥ 50000	545
Cc1ncccc1-c1ccc(NC(=O)c2ccc(OC(F)(F)F)c(NC(=O)CN3CCOCC3)c2)cc1 [Example 16, N-[4-(2-methylpyridin-3-yl)phenyl]-3-[(morpholin-4-ylacetyl)amino]-4-(trifluoromethoxy)benzamide]	41500	117
COc1ncccc1-c1ccc(NC(=O)c2ccc(OC(F)(F)F)c(NC(=O)CN3CCOCC3)c2)cc1 [Example 17, N-[4-(2-methoxypyridin-3-yl)phenyl]-3-[(morpholin-4-ylacetyl)amino]-4-(trifluoromethoxy)-benzamide]	≥ 50000	285
O=C(CN1CCOCC1)Nc1cc(C(=O)Nc2ccc(-c3cccnc3)cc2)ccc1OC(F)(F)F [Example 18, 3-[(morpholin-4-ylacetyl)amino]-N-[4-(pyridin-3-yl)phenyl]-4-(trifluoromethoxy)benzamide]	≥ 50000	78.7
Nc1ncc(-c2ccc(NC(=O)c3ccc(OC(F)(F)F)c(NC(=O)C4(N5CCOCC5)CC4)c3)cc2)cn1 [Example 19, N-[4-(2-aminopyrimidin-5-yl)phenyl]-3-({[1-(morpholin-4-yl)cyclopropyl]carbonyl}amino)-4-(trifluoromethoxy)benzamide]	≥ 50000	3.2
O=C(Nc1ccc(-c2cccnc2F)cc1)c1ccc(OC(F)(F)F)c(NC(=O)C2(N3CCOCC3)CC2)c1 [Example 20, N-[4-(2-fluoropyridin-3-yl)phenyl]-3-({[1-(morpholin-4-yl)cyclopropyl]carbonyl}amino)-4-(trifluoromethoxy)benzamide]	≥ 50000	3.15
Nc1ccc(-c2ccc(NC(=O)c3ccc(OC(F)(F)F)c(NC(=O)C4(N5CCOCC5)CC4)c3)cc2)cn1 [Example 21, N-[4-(6-aminopyridin-3-yl)phenyl]-3-({[1-(morpholin-4-yl)cyclopropyl]carbonyl}amino)-4-(trifluoromethoxy)benzamide]	46500	4.55
O=C(Nc1ccc(-c2cccnc2F)cc1)c1ccc(Cl)c(NC(=O)C2(N3CCOCC3)CC2)c1 [Example 22, 4-chloro-N-[4-(2-fluoropyridin-3-yl)phenyl]-3-({[1-(morpholin-4-yl)cyclopropyl]carbonyl}amino)-benzamide]	≥ 50000	140
Nc1ncc(-c2ccc(NC(=O)c3ccc(Cl)c(NC(=O)C4(N5CCOCC5)CC4)c3)cc2)cn1 [Example 23, N-[4-(2-aminopyrimidin-5-yl)phenyl]-4-chloro-3-({[1-(morpholin-4-yl)cyclopropyl]carbonyl}amino)-benzamide]	≥ 50000	26.2
Cc1ccc(C(=O)Nc2ccc(-c3cccnc3)cc2)cc1NC(=O)C1(N2CCOCC2)CC1 [Example 24, 4-methyl-3-({[1-(morpholin-4-yl)cyclopropyl]carbonyl}amino)-N-[4-(pyridin-3-yl)phenyl]benzamide]	≥ 50000	34.1
Cc1ccc(C(=O)Nc2ccc(-c3cccnc3F)cc2)cc1NC(=O)C1(N2CCOCC2)CC1 [Example 25, N-[4-(2-fluoropyridin-3-yl)phenyl]-4-methyl-3-({[1-(morpholin-4-yl)cyclopropyl]carbonyl}-amino)benzamide]	≥ 50000	20.7
